Results taken from patent US20040186273A1 (V.I. Technologies, Inc., priority 2000, published 2004).

Target: radiolabelled octapeptide repeat *acetyl[…]amide (SEQ ID NO:2) (Homo sapiens, UniProt P04156)
Settings: not given

For GFFFWW [Peptide 89], the “binding of octapeptide to resin (in words)” value was “highest affinity binder”.

Same assay, conditions: pH 7.4

In order of falling “% unbound [14C]” value:
1. LEIRLA [Peptide 93]  96%
2. HKEQGA [Peptide 119]  91%
3. LAWFWR [Peptide 88]  90%
4. LRVIIS [Peptide 96]  90%
5. SFPYYY [Peptide 92]  90%
6. WLYWIP [Peptide 85]  90%
7. LLIWIP [Peptide 84]  89%
8. RWIISL [Peptide 113]  89%
9. SLEEYV [Peptide 95]  89%
10. PFHPG [Peptide 100]  88%
11. TGIPII [Peptide 118]  88%
12. QWWFII [Peptide 114]  87%
13. VFEYIK [Peptide 115]  87%
14. IQIWIF [Peptide 110]  85%
15. LWWLFV [Peptide 111]  85%
16. QLGHQW [Peptide 97]  85%
17. WLVWIA [Peptide 116]  85%
18. WIPPYN [Peptide 101]  84%
19. LLLVIA [Peptide 94]  83%
20. YWFIYI [Peptide 117]  83%
21. FYVFTA [90/98]  82%
22. SNYGPY [Peptide 99]  79%
23. IFFWIK [Peptide 112]  77%
24. WEFYWF [Peptide 86]  76%
25. WFPHFF [Peptide 102]  64%
26. YFIWWE [Peptide 91]  58%
27. YVFNWY [Peptide 87]  45%
28. GFFFWW [Peptide 89]  23%

Target: radiolabelled octapeptide repeat peptide *acetyl…amide
Settings: not given

In order of rising % unbound [14C]:
1. GFFFWW (modifications not checked) [peptide 89, GFFFWW, on Toyopearl resin, free amino terminal]  23%
2. YVFNWY (modifications not checked) [peptide 87, YVFNWY, on Toyopearl resin, free amino terminal]  45%
3. YFIWWE (modifications not checked) [peptide 91, YFIWWE, on Toyopearl resin, free amino terminal]  58%
4. WFPHFF (modifications not checked) [peptide 102, WFPHFF, on Toyopearl resin, free amino terminal]  64%
5. WEFYWF (modifications not checked) [peptide 86, WEFYWF, on Toyopearl resin, free amino terminal]  76%
6. IFFWIK (modifications not checked) [peptide 112, IFFWIK, on Toyopearl resin, free amino terminal]  77%
7. SNYGPY (modifications not checked) [peptide 99, SNYGPY, on Toyopearl resin, free amino terminal]  79%
8. FYVFTA (modifications not checked) [peptide 90/98, FYVFTA, on Toyopearl resin, free amino terminal]  82%
9. LLLVIA (modifications not checked) [peptide 94, LLLVIA, on Toyopearl resin, free amino terminal]  83%
10. YWFIYI (modifications not checked) [peptide 117, YWFIYI, on Toyopearl resin, free amino terminal]  83%
11. QWWFII (modifications not checked) [peptide 114, QWWFII, on Toyopearl resin, free amino terminal]  87%
12. VFEYIK (modifications not checked) [peptide 115, VFEYIK, on Toyopearl resin, free amino terminal]  87%
13. PFHPG (modifications not checked) [peptide 100, PFHPG, on Toyopearl resin, free amino terminal]  88%
14. TGIPII (modifications not checked) [peptide 118, TGIPII, on Toyopearl resin, free amino terminal]  88%
15. LLIWIP (modifications not checked) [peptide 84, LLIWIP, on Toyopearl resin, free amino terminal]  89%
16. SLEEYV (modifications not checked) [peptide 95, SLEEYV, on Toyopearl resin, free amino terminal]  89%
17. RWIISL (modifications not checked) [peptide 113, RWIISL, on Toyopearl resin, free amino terminal]  89%
18. LRVIIS (modifications not checked) [peptide 96, LRVIIS, on Toyopearl resin, free amino terminal]  90%
19. WLYWIP (modifications not checked) [peptide 85, WLYWIP, on Toyopearl resin, free amino terminal]  90%
20. LAWFWR (modifications not checked) [peptide 88, LAWFWR, on Toyopearl resin, free amino terminal]  90%
21. SFPYYY (modifications not checked) [peptide 92, SFPYYY, on Toyopearl resin, free amino terminal]  90%
22. HKEQGA (modifications not checked) [peptide 119, HKEQGA, on Toyopearl resin, free amino terminal]  91%
23. LEIRLA (modifications not checked) [peptide 93, LEIRLA, on Toyopearl resin, free amino terminal]  96%

Target: radiolabelled octapeptide repeat peptide *acetyl…amide
Settings: not given
Remark: another data set of the same source

In order of falling % unbound [14C]:
1. peptide 97, QLGHQW, on Toyopearl resin, free amino terminal  85%
2. peptide 110, IQIWIF, on Toyopearl resin, free amino terminal  85%
3. peptide 111, LWWLFV, on Toyopearl resin, free amino terminal  85%
4. peptide 116, WLVWIA, on Toyopearl resin, free amino terminal  85%
5. peptide 101, WIPPYN, on Toyopearl resin, free amino terminal  84%
